Test results as given in patent US11952344B2, “Heterocyclic compound and use thereof” (TAKEDA PHARMACEUTICAL COMPANY LIMITED, priority 2019, dated 2024).

Legend:
[1] = target: T1, NMDA receptor containing the NR2B subunit (Homo sapiens, UniProt Q13224); settings: continuous intravenous administration; cited from earlier work
[2] = target: T2, NMDA receptor containing the NR2B subunit (Rattus norvegicus, UniProt Q00960); settings: rodents; cited from earlier work
[3] = target: T3, Human NMDA (NR1/NR2B) Receptor (Homo sapiens, UniProt Q13224); assay: NR2B Ca2+ influx assay; format: cell-based; settings: 10 μM compound; HEK293 cells expressing GRIN1 and GRIN2B; glutamic acid/glycine-induced Ca2+ influx, Fluo-4 fluorescence; read-out: inhibitory rate (10 μM compound concentration)
T3 construct: host or cells: HEK293
Outline: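 HEK293 cells stably expressing human GRIN1/GRIN2B were tetracycline-induced for 2 h, loaded with Fluo-4AM and preincubated 15 min at room temperature with compound at 10 μM final. Ca2+ influx was triggered by glutamic acid and glycine and fluorescence (ex 480/em 540 nm) was recorded for 5 min. Inhibition was computed from cumulative fluorescence.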

[4] = target: T2, NMDA receptor containing the NR2B subunit; assay: [3H]MK-801 binding test in vivo (hippocampus); design: from tissue; host or cells: rat hippocampus (Sprague Dawley); species or system Sprague Dawley rats; settings: po, [3H]MK-801 binding inhibitory rate, 1 mg/kg p.o., vehicle = 100% binding, excess MK-801 maleate = 0%
Description: Experimental Example 2 [^3H]MK-801 Binding Test In Vivo
In order to confirm “functional antagonistic action on an NMDA receptor containing the NR2B subunit in vivo” which the compound of the present invention has, binding test was performed using tritium-labeled form of MK-801 ((5R,10S)-5-methyl-10,11-dihydro-5H-5,10-epiminodibenzo[a,d][7]annulene) ([^3H]MK-801), which is a compound capable of binding to the opening site of the NMDA receptor.
The example compound (1 mg/kg/2 mL, 0.5% MC water) or vehicle ([…], 0.5% MC water) was orally administered (p.o.) to Sprague Dawley rats (body weight 180-260 g). After a certain time (around after time-to maximum blood concentration), [^3H]MK-801 (20 μCi/kg/mL, Muromachi Kikai) was intravenously administered. After 10 min, the rats were euthanized by decapitation, and subjected to craniotomy, and the hippocampus was collected. The collected hippocampus was homogenized in 30 volumes (30 mL per 1 g tissue) ice-cooled 20 mM Hepes (pH7.5, Hampton Research) using a homogenizer (T10 basic Ultra-Turrax) for […]. […] The filter was washed four times with ice-cooled saline (5 mL, Otsuka Pharmaceutical), put into a scintillation vial, and then 10 mL of liquid scintillator A (FUJIFILM Wako Pure Chemical Corporation) was added thereto, and the residual radioactivity was counted using liquid scintillation counter (ALOKA LSC-6100). Separately, the residual radioactivity in 100 μL of the homogenate before the filtration was counted in the same way. The value of [the residual radioactivity in the filter/the residual radioactivity in the 100 μL of the homogenate] was calculated as a [^3H]MK-801 binding rate to the NMDA receptor expressing in each individual hippocampus tissue. […] The difference between the percentage of [^3H]MK-801 binding rate in the group orally administered with the example compound and that in the vehicle control group (100%) was analyzed as [^3H]MK-801 binding inhibitory rate by the example compound.

[5] = target: T1, NMDA receptor containing the NR2B subunit; settings: in vivo; cited from earlier work
[6] = test system: NMDA receptor; settings: single intravenous administration; major depression and bipolar disorder; cited from earlier work
[7] = test system: NMDA receptor; settings: in vivo; cited from earlier work

T3 sequence (Q13224 27-1484, other chains not shown): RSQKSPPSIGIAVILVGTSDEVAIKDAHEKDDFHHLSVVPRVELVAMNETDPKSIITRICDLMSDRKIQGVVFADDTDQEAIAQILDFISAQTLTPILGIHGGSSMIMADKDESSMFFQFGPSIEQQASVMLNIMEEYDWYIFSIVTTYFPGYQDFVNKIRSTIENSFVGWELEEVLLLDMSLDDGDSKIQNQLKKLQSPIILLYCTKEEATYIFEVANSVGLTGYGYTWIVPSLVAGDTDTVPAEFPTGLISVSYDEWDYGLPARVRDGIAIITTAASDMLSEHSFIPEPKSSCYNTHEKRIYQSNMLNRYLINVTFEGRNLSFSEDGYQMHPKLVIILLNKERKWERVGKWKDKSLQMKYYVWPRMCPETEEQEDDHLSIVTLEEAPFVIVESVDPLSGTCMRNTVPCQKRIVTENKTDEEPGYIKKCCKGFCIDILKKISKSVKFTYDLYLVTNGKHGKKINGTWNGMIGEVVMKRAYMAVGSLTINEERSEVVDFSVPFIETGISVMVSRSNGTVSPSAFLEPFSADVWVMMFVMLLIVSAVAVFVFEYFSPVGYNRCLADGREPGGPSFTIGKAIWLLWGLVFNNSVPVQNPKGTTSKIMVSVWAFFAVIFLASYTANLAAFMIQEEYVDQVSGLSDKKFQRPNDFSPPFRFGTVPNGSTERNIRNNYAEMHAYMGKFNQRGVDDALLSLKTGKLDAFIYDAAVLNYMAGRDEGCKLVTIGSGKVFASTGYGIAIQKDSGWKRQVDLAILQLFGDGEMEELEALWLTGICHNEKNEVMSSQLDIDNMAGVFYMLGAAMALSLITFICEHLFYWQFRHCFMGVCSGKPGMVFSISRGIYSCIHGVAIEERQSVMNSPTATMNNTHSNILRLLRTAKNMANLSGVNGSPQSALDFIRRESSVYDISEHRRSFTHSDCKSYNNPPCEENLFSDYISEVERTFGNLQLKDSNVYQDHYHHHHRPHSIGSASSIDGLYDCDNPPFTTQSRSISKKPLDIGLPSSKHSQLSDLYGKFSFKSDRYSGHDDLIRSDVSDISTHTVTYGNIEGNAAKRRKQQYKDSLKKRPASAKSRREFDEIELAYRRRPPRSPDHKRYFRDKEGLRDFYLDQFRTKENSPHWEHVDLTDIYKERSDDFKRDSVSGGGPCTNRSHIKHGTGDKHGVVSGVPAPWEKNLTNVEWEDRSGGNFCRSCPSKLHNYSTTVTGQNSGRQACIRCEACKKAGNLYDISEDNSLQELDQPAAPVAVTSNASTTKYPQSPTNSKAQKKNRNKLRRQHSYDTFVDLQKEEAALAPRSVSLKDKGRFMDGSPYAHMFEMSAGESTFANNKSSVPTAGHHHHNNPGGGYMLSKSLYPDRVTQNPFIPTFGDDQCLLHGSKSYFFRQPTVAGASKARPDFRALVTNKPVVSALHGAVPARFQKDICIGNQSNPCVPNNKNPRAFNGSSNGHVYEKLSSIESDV
T2 sequence (Q00960 27-1482, other chains not shown): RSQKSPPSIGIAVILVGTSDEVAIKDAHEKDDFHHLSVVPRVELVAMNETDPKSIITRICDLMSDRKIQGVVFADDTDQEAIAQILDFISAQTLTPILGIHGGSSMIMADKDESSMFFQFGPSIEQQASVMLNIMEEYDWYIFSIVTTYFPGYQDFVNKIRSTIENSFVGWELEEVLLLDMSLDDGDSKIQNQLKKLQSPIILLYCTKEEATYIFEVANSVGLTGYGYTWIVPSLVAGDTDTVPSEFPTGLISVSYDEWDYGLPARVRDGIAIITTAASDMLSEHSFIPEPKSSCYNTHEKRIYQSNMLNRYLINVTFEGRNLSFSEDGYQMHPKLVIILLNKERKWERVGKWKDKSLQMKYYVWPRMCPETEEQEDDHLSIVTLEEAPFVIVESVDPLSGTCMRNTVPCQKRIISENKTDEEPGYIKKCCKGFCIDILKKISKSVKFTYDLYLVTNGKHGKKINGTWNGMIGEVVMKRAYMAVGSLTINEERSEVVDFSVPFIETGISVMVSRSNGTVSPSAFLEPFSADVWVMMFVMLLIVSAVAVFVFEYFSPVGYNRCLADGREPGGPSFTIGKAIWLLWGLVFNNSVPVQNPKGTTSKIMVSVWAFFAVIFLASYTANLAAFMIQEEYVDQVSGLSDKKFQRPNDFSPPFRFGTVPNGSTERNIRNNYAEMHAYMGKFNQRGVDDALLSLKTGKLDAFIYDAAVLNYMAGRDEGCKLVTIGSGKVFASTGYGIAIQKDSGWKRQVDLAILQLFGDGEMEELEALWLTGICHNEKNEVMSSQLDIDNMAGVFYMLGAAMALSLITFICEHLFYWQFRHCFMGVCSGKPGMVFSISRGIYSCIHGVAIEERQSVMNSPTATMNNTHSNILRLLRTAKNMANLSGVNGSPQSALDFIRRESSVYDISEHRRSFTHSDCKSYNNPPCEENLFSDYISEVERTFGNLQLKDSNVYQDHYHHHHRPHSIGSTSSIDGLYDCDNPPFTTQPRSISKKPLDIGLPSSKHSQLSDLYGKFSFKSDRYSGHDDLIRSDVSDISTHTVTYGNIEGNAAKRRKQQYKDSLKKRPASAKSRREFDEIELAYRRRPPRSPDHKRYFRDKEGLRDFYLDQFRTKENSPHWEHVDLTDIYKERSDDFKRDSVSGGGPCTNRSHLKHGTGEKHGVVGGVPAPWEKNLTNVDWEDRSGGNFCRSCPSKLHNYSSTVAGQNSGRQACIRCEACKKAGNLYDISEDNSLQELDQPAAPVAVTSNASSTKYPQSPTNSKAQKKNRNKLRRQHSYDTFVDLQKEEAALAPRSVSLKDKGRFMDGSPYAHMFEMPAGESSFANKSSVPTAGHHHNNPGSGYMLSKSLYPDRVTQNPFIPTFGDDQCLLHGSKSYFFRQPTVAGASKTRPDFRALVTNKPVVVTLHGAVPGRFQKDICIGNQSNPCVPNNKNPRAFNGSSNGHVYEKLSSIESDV
T1 sequence (Q13224 27-1484, other chains not shown): as the sequence (Q13224 27-1484, other chains not shown) above

SMILES	inhibition at 10 µM [3]	inhibition at 1 mg/kg [4]	other results
C[C@@H]([C@@H](O)c1ccc(O)cc1)N1CCC(O)(c2ccccc2)CC1 [CP-101, 606]	–	–	improvement of treatment resistant-depression symptom [1]: significantly improves treatment resistant-depression symptom; number of occurrence and depth of cortical spreading depression [2]: suppress the number of occurrence and the depth of cortical spreading depression
COc1ncncc1CNC(=O)c1cnc(OC(F)F)c(F)c1 [Example 12, 6-(difluoromethoxy)-5-fluoro-N-[(4-methoxypyrimidin-5-yl)methyl]pyridine-3-carboxamide]	92%	23%	–
COc1cncc(CNC(=O)c2cnc(OC(F)F)c(F)c2)c1 [Example 42, 6-(difluoromethoxy)-5-fluoro-N-[(5-methoxypyridin-3-yl)methyl]pyridine-3-carboxamide]	94%	14%	–
COc1ncncc1CNC(=O)c1cc(F)c(OC(F)F)c(F)c1 [Example 63, 4-(difluoromethoxy)-3,5-difluoro-N-[(4-methoxypyrimidin-5-yl)methyl]benzamide]	90%	10%	–
O=C(NCc1cnccc1OC(F)F)c1ccc(OC(F)(F)F)c(F)c1 [Example 112, N-[(4-(difluoromethoxy)-pyridin-3-yl)methyl]-3-fluoro-4-(trifluoromethoxy)-benzamide]	96%	–	–
CC(C(O)c1ccc(O)cc1)N1CCC(Cc2ccccc2)CC1 (stereo not shown) [Ifenprodil]	–	–	pain sense threshold [5]: the pain sense threshold increases
C[C@@H](CN1CCC(Cc2ccccc2)CC1)[C@@H](O)c1ccc(O)cc1 [Ro25-6981]	–	–	number of occurrence and depth of cortical spreading depression [2]: suppress the number of occurrence and the depth of cortical spreading depression
CNC1(c2ccccc2Cl)CCCCC1=O (stereo not shown) [ketamine]	–	–	improvement of depression symptom [6]: improves depression symptom accompanying major depression and bipolar disorder rapidly and in a sustained manner
CC12CC3CC(C)(C1)CC(N)(C3)C2 [memantine]	–	–	improvement of peripheral symptoms of dementia [7]: partially improves peripheral symptoms of dementia
